Laboratory results published in US9580398B2, “Compounds, compositions, and methods for modulating ferroptosis and treating excitotoxic disorders” (The Trustees of Columbia University in the City of New York, priority 2012, dated 2017).

What follows are compounds tested on erastin (10 μM)-treated HT-1080 cells (assay: Inhibition of death in erastin (10 μM)-treated HT-1080 cells, viability by Alamar Blue). Settings: Homo sapiens, HT-1080, inhibition of death in erastin (10 μM)-treated HT-1080 cells; Alamar Blue; from dose response curves.
Type: cell-based, human
Description: Cell viability was typically assessed in 384-well format by Alamar Blue (Invitrogen) fluorescence (ex/em 530/590) measured on a Victor3 platereader (Perkin Elmer, Waltham, Mass.). In some experiments, Trypan Blue dye exclusion counting was performed using an automated cell counter (ViCell, Beckman-Coulter Inc., Brea, Calif.). Cell viability in test conditions is reported as a percentage relative to the negative control treatment.
Flow cytometry data was analyzed using FloJo (9.3.2, Tree Star, Inc., Ashland, Oreg.). Chemical structures were drawn using ChemDraw Ultra (Cambridgesoft, Cambridge, Mass.). Computational determination of log P (Slog P function) was performed using MOE 2010.10 (Chemical Computing Group, Montreal, […].). Viability data was analyzed using Excel (Microsoft Corp., […].). Summary data and heatmaps were generated using R. Dose-response curves were computed by 4-parameter logistic regression in Prism 5.0c (GraphPad Software). Images were manipulated using Photoshop CS4 and Illustrator CS4 (Adobe, San Jose, Calif.).
The ability of various compounds disclosed herein to inhibit death in erastin (10 μM)-treated HT-1080 cells were tested. Cell viability was assessed by Alamar Blue. EC50 values (nM) were computed from dose response curves.
With `CCOC(=O)c1ccc(NC2CCC(C(C)(C)C)CC2)c(N)c1` (stereo not drawn) [SRS8-92, ethyl 3-amino-4-(4-tert-butylcyclohexylamino)benzoate] the EC50 was 42 nM.
Compound `CCOC(=O)c1ccc(NC2C3CC4CC(C3)CC2C4)c(NCc2ccccc2)c1` (stereo not drawn) [SRS15-20-mono, ethyl 3-(benzylamino)-4-(2-adamantylamino)benzoate] has an EC50 of 22 nM.
`CCOC(=O)c1ccc(NC23CC4CC(CC(C4)C2)C3)c(NCc2cncnc2)c1` [SRS15-25, ethyl 4-(1-adamantylamino)-3-(pyrimidin-5-ylmethylamino)-benzoate] was tested, and the EC50 was 54 nM.
For `CCOC(=O)c1ccc(NC2CCOCC2)c(N)c1` [SRS8-41, ethyl 3-amino-4-(tetrahydro-2H-pyran-4-ylamino)benzoate], the EC50 was 1450 nM.
`CCOC(=O)c1cc(N)c(NC2CCCCC2)cc1Cl` [SRS14-57, ethyl 5-amino-2-chloro-4-(cyclohexylamino)benzoate] was tested, and the EC50 was 54 nM.
With `CC(C)(C)OC(=O)CCOCCOC(=O)c1ccc(NC2CCCCC2)c(N)c1` [SRS8-37, 2-(2-(tert-butoxycarbonyl)ethoxy)ethyl 3-amino-4-(cyclohexylamino)benzoate] the EC50 was 160 nM.
`CCOC(=O)c1ccc(NC2CCCCCC2)c(N)c1` [SRS8-90, ethyl 3-amino-4-(cycloheptylamino)benzoate] was tested, and the EC50 was 130 nM.
Work on `CCOC(=O)c1ccc(NC23CC4CC(CC(C4)C2)C3)c(N)c1` [SRS15-18, ethyl 3-amino-4-(1-adamantylamino)benzoate] yielded an EC50 of 88 nM.
With `CCOC(=O)c1ccc(NC2CCCCCCC2)c(N(C)C)c1` [SRS9-01, ethyl 4-(cyclooctylamino)-3-(dimethylamino)benzoate] the EC50 was 3460 nM.
In the case of `CCOC(=O)c1ccc(Cl)c(N)c1` [SRS8-62, ethyl 3-amino-4-chlorobenzoate], the EC50 is reported as over 10000 nM.
With `CCOC(=O)c1ccc(NC2CCCCC2)c(NCc2ccc(C(=O)OC)cc2)c1` [SRS12-69, ethyl 4-(cyclohexylamino)-3-(4-(methoxycarbonyl)-benzylamino)benzoate] the EC50 was 58 nM.
In the case of `CCOC(=O)c1ccc(NC2C3CC4CC(C3)CC2C4)c(NCc2cncnc2)c1` (stereo not drawn) [SRS15-22, ethyl 4-(2-adamantylamino)-3-(pyrimidin-5-ylmethylamino)-benzoate], the EC50 is reported as 21 nM.
For `CCOC(=O)c1ccc(CNc2cc(C(=O)OCC)ccc2NC2CCCCC2)cc1` [SRS12-84, ethyl 4-(cyclohexylamino)-3-(4-(ethoxycarbonyl)benzylamino)-benzoate], the EC50 was 52 nM.
With `CCOC(=O)c1ccc(NC2CCCCC2)c(NCc2ccc3ccccc3c2)c1` [SRS12-51, ethyl 4-(cyclohexylamino)-3-(naphthalen-2-ylmethylamino)-benzoate] the EC50 was 56 nM.
With `CCOC(=O)c1ccc(NN2CCN(C)CC2)c(N)c1` [SRS8-53, ethyl 3-amino-4-(4-methylpiperazin-1-ylamino)benzoate] the EC50 was 3600 nM.
Work on `CCOC(=O)c1ccc(NC2C3CC4CC(C3)CC2C4)c(NCc2ccncc2)c1` (stereo not drawn) [SRS15-21, ethyl 4-(2-adamantylamino)-3-((pyridin-4-ylmethyl)amino)-benzoate] yielded an EC50 of under 5 nM.
`CCOC(=O)c1cnc(NC2CCCCC2)c(NCc2ccccc2)c1` [SRS14-91, ethyl 5-(benzylamino)-6-(cyclohexylamino)pyridine-3-carboxylate] gave an EC50 of 48 nM.
`CCOC(=O)c1ccc(NC2CCCC2)c(N)c1` [SRS8-73, ethyl 3-amino-4-(cyclopentylamino)benzoate] showed an EC50 of 120 nM.
Work on `CCOC(=O)c1cnc(NC2CCCCC2)c(NCc2ccncn2)c1` [SRS14-93, ethyl 6-(cyclohexylamino)-5-(pyrimidin-4 ylmethylamino)-pyridine-3-carboxylate] yielded an EC50 of 1550 nM.
Work on `CCOC(=O)c1ccc(NC2C3CC4CC(C3)CC2C4)c(N)c1` (stereo not drawn) [SRS15-17, ethyl 3-amino-4-(2-adamantylamino)benzoate] yielded an EC50 of 171 nM.
`CCOC(=O)c1ccc(NC2CCCCCCC2)c(C(=O)OC(C)(C)C)c1` [SRS8-91, ethyl 3-(tert-butoxycarbonyl)-4-(cyclooctylamino)benzoate] was tested, and the EC50 was over 10000 nM.
